Measured values taken from US5929074A, “Pyridazinone derivatives with pharmaceutical activity” (Nissan Chemical Industries, Ltd., priority 1993, dated 1999).
pEC50, pIC50: −log10 of the molar value. Like-named read-outs stand apart in the source and are kept apart here.

Key:
guinea-pig trachea [1] = experiment: Bronchodilating effect in vitro, Method 1-1: relaxation of LTD4-contracted guinea-pig trachea strips; assay type: cell-based; details: Cavia porcellus, read-out: EC50 (concentration to achieve 50% relaxation relative to relaxation by 1 mM aminophylline)
Procedure: (§1) A test sample drug was dissolved in 100% dimethylsulfoxide (DMSO, Wako Junyaku) and diluted for use. Leukotriene D4 (LTD4, Ultrafine) and isoproterenol (Isoproterenol, Sigma) were diluted with distilled water. Indomethacin (Indo, Sigma) was dissolved in 100% ethanol (EtOH, Komune Kagaku). Aminophylline (AP, Sigma), histamine dihydrochloride (His, Wako Junyaku) was dissolved in distilled water. The final concentrations of DMSO and EtOH in a bath were made not higher than 0.25% v/v and not higher than 0.1% v/v, respectively. Method 1:1:
(§2) A guinea-pig of 300-450 g was exsanguinated, and the trachea was taken out. After removing fat and connective tissues, it was cut and divided into 2 to 3 spiral strips, each having a width of about 2 mm and containing 4 smooth muscle tissues. Each specimen thus prepared was suspended in an organ bath of 8 ml containing a modified Tyrode solution aerated with 95% O2 +5% CO2 at 37° C., and a load of 1 g was applied thereto. The relaxation of the muscle was recorded by a pen recorder (Yokogawa Hokushin Electric, type 3066) by means of an isotonic transducer (Nihon Kohden, TD-112S).
The composition of the modified Tyrode solution was as follows (mM):
The specimen was allowed to stand for 50-60 minutes, and was contracted with histamine dihydrochloride (100 μM). After the reaction became constant, it was washed and allowed to stand for 20-30 minutes. Indomethacin (5 μM) was added thereto, and after incubation for 30 minutes, the specimen was contracted by adding LTD4 (30 nM). After the reaction-became stable, a test sample drug was accumulatively administered. Finally, AP (1 mM) was added to achieve the maximum relaxation reaction. The result was expressed by relaxation percent relative to the relaxation by AP which was rated 100%, and a concentration to achieve 50% relaxation (EC50, μM) was measured. As a control drug, AP was used.

platelet = experiment: Anti-platelet aggregation effect in rabbits (ADP-induced); assay type: cell-based, rabbit; details: read-out: IC50 (concentration at which aggregation of control sample was 50% inhibited)
Procedure: Anti-platelet aggregation effect in rabbits
Blood was collected from the abdominal artery of Japanese white male rabbits (weight: 1.8 to 2.5 kg) into a syringe containing 1/10 volume 3.8% sodium citrate. The blood thus obtained was subjected to a centrifugation at 200×g for 7 minutes at room temperature to obtain platelet rich plasma (PRP). Furthermore, the residue was subjected to a centrifugation at 2000×g for 10 minutes to obtain platelet poor plasma (PPP). The measurement was effected by diluting PRP with PPP to 300,000/mm^3. PRP and PPP were placed in a cuvette, and the measurement range of transmittance was adjusted to 0% in the case of PRP and to 100% in the case of PPP. Thereafter, a test sample drug dissolved in 100% dimethylsulfoxide (DMSO) was added to PRP (the final concentration of DMSO: 0.25%). After incubation was effected at 37° C. at 900 rpm for 2 minutes, an aggregating agent was added to record an aggregation curve. The anti-platelet aggregation effect of the test sample drug was expressed by a concentration (IC50 : μM) at which the aggregation of control sample was 50% inhibited. The aggregating agent ADP was used at the minimum concentration (5 to 10 μM) which caused the maximum aggregation. The measurement of platelet aggregation was carried out by using NBS HEMA TRACER 601.

histamine H1 receptor = target: T1, histamine H1 receptor (Bos taurus, UniProt P30546); experiment: Binding test employing 3H-pyrilamine (histamine H1 receptor-binding test); details: 0.5 h
T1 construct: suspension of bovine cerebellum; from tissue; host or cells: bovine cerebellum
T1 sequence (P30546 whole entry): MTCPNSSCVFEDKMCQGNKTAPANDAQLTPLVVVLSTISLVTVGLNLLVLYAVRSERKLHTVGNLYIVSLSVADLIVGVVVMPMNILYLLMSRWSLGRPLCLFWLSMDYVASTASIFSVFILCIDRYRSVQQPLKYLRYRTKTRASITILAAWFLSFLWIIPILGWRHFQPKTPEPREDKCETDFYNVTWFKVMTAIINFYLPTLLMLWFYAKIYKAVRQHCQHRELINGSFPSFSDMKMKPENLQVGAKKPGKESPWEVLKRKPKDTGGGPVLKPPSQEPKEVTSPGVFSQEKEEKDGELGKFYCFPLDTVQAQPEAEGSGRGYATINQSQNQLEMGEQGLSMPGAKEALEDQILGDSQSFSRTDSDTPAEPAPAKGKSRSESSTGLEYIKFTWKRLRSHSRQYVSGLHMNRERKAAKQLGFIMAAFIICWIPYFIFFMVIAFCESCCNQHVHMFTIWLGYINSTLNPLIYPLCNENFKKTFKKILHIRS
Procedure: Tritiated pyrilamine was added to a suspension of bovine cerebellum and a 50 mM phosphate buffer solution (pH 7.5), and the mixture was left to stand still at 25° C. for 30 minutes. Then, the mixture was rapidly filtered under suction through a glass fiber filter paper, and the radio activities on the filter paper were measured.

[2] = system: anaphylactic bronchoconstriction mediated by endogeneously liberated SRS-A; experiment: Effect on anaphylactic bronchoconstriction mediated by endogeneously liberated SRS-A in passively sensitized guinea-pig; assay type: in vivo; details: for inhibition in vivo at 30 mg/kg: Cavia porcellus, po, 2 h
Procedure: Effect on anaphylactic bronchoconstriction mediated by endogeneously liberated SRS-A in passively sensitized guinea-pig
Male guinea-pigs (350-450 g) were passively sensitized with intravenous (i.v.) injection of 0.125 ml rabbit anti-EA (egg albumin) serum (Capple Laboratories) 1 to 2 days preceding the experiment. Antigen-induced anaphylactic bronchoconstrictions mediated by endogeneously liberated SRS-A were measured by modified method of Konzett and Rossler (Arch. Exp. Path. Pharmak., 195, 71, 1940). Sensitized quinea-pigs were anaesthetized with intraperitoneal injection of urethane (1.5 g/kg). The right jugular vein was cannulated for the administration of the all agents and trachea was cannulated to record total pulmonary resistance. Guinea-pigs were artificially ventilated by a small animal respirator (Shinano, Model SN-480-7) set at a stroke volume of 4.5 ml and a rate of 50 breaths per min. The change in pulmonary resistance was measured with a pressure transducer (Nihon Kohden, Model TP-602T) connected to a T-tube on the tracheal cannula. The percentage of the maximum bronchoconstriction obtained by clamping off the trachea. Following surgical preparation, the animals were pretreated with indomethacin (2 mg/kg, 10 min), pyrilamine (2 mg/kg, 6 min) and propranolol (0.1 mg/kg, 5 min) prior to the EA challenge (0.2 mg/kg). All test compounds were administered orally 2 hours before the EA challenge. Inhibition (%) of broncho-constriction was determined as follows: Inhibition (%)=(1.0-% maximum bronchoconstriction in test/% maximum bronchoconstriction in control)×100. The maximum bronchoconstriction was 62±6% (Mean±S.E.M; n=6) and the number of test animals was 5-6.

guinea-pig trachea [3] = experiment: Bronchodilating effect in vitro, Method 1-2: relaxation of guinea-pig trachea strips (no LTD4 contraction); assay type: cell-based; details: Cavia porcellus, read-out: EC50 (concentration to achieve 50% relaxation relative to relaxation by 1 mM aminophylline)
Procedure: as §1, §2
The same measuring method as method 1-1 was employed. The specimen was allowed to stand for from 60 to 90 minutes and then relaxed by an addition of 1 μM of isopreterenol. The specimen was washed, and this operation was repeated at an interval of from 30 to 40 minutes until a constant relaxation reaction was reached. Then, a test sample drug was accumulately applied to relax the specimen. Finally, 1 mM of AP was added to achieve the maximum relaxation reaction. The result was expressed by relaxation percent relative to the relaxation by AP which was rated 100%, and a concentration to achieve 50% relaxation (EC50, μM) was obtained. The final concentration of DMSO in the bath was adjusted to be 0.2 v/v%. As a control drug, AP was used.

[4] = Method 1-1, LTD4 (30 nM) contracted trachea, indomethacin 5 μM
[5] = Oryctolagus cuniculus, Platelet, rabbit PRP, ADP 5 to 10 μM, 37° C.
[6] = 30 mg/kg, orally 2 hours before EA challenge
[7] = 10 μM, bovine cerebellum, pH 7.5, 25° C., 30 minutes, read-out: Inhibition ratio against H1-receptor
[8] = Method 1-2, trachea conditioned with 1 μM isoproterenol, no LTD4, DMSO 0.2 v/v%
[9] = 30 mg/kg, orally 2 hours before EA challenge, read-out: Inhibition of broncho-constriction

SMILES | pEC50 (guinea-pig trachea [1]; [4]) | pIC50 (platelet; [5]) | inhibition at 10 µM (histamine H1 receptor; [7]) | pEC50 (guinea-pig trachea [3]; [8]) | inhibition in vivo at 30 mg/kg [2, 9] | other results
COc1ccc(CNc2cn[nH]c(=O)c2Br)cc1OCCN1CCN(Cc2ccc(Cl)cc2)CC1.Cl [Compound 7, 4-Bromo-5-[3-{2-(4-(4-chlorobenzyl)-piperazin-1-yl)-ethoxy}-4-methoxybenzylamino]-3(2H)-pyridazinone hydrochloride] | 6.31 | 5.27 | – | – | – | inhibition at 10 µM (histamine H1 receptor; pH 7.5, read-out: Inhibition ratio against H1-receptor, 10 μM, bovine cerebellum, pH 7.5, 25° C., 30 minutes): 56.1%; Inhibition of broncho-constriction [2, 6]: 59%
COc1ccc(CNc2cn[nH]c(=O)c2Br)cc1OCCN1CCN(Cc2ccc(Cl)cc2)CC1.O=C(O)/C=C/C(=O)O [Compound 8, 4-Bromo-5-[3-{2-(4-(4-chlorobenzyl)-piperazin-1-yl)-ethoxy}-4-methoxybenzylamino]-3(2H)-pyridazinone fumarate] | – | – | 56.5% | – | – | pIC50 (platelet; rabbit PRP, ADP 5 to 10 μM, 37° C., fumarate): 5.26; Inhibition of broncho-constriction [2, 6]: 32%
CCn1ncc(NCc2ccc(OC)c(OCCN3CCN(Cc4ccc(F)cc4)CC3)c2)c(Cl)c1=O [Compound 17] | 5.48 | – | 55.8% | – | – | –
COc1ccc(CNc2cn[nH]c(=O)c2Br)cc1OCCCN1CCN(Cc2ccccc2)CC1 [Compound 22] | 6.41 | 5.68 | 86.6% | – | – | –
COc1ccc(CNc2cn[nH]c(=O)c2Cl)cc1OCCCN1CCN(Cc2ccccc2)CC1 [Compound 23] | 5.89 | 5.34 | 92.2% | – | – | –
COc1ccc(CNc2c([N+](=O)[O-])n[nH]c(=O)c2Cl)cc1OCCCN1CCN(Cc2ccccc2)CC1 [Compound 24] | 5.70 | – | 89.2% | 6.01 | – | –
COc1ccc(CNc2c(Cl)n[nH]c(=O)c2Cl)cc1OCCCN1CCN(Cc2ccccc2)CC1 [Compound 25] | 6.33 | 5.29 | 94.4% | – | 59% | –
COc1ccc(CNc2cn[nH]c(=O)c2Cl)cc1OCCCN1CCN(Cc2ccc(F)cc2)CC1 [Compound 26] | 6.12 | – | 92.6% | 6.04 | 36% | –
COc1ccc(CNc2c([N+](=O)[O-])n[nH]c(=O)c2Cl)cc1OCCCN1CCN(Cc2ccc(Cl)cc2)CC1 [Compound 29] | – | – | 93.6% | – | – | –
COc1ccc(CNc2c(Cl)n[nH]c(=O)c2Cl)cc1OCCCN1CCN(Cc2ccc(Cl)cc2)CC1 [Compound 30] | 5.59 | – | 90.5% | – | – | –
COc1ccc(CNc2cn[nH]c(=O)c2Cl)cc1OCC(=O)N1CCN(Cc2ccccc2)CC1 [Compound 36] | – | – | – | – | – | pEC50 (guinea-pig trachea [1]): 6.49; pIC50 (platelet; Oryctolagus cuniculus, Platelet): 5.80; pEC50 (guinea-pig trachea [3]): 6.62; inhibition in vivo at 30 mg/kg ([2]; read-out: Inhibition of broncho-constriction, 30 mg/kg, orally 2 hours before EA challenge): 41%
COc1ccc(CNc2cn[nH]c(=O)c2Cl)cc1OCC(=O)N1CCN(Cc2ccc(F)cc2)CC1 [Compound 39] | 6.80 | 5.85 | – | 6.77 | 63% | –
COc1ccc(CNc2cn[nH]c(=O)c2Br)cc1OCC(=O)N1CCN(Cc2ccc(F)cc2)CC1 [Compound 43] | 6.40 | 5.66 | – | 6.55 | 62% | –
COc1ccc(CNc2cn[nH]c(=O)c2Cl)cc1OCCCC(=O)N1CCN(Cc2ccccc2)CC1 [Compound 47] | 6.11 | 5.24 | – | 6.27 | 37% | –
CCOc1n[nH]c(=O)c(Cl)c1NCc1ccc(OC)c(OCC(=O)N2CCN(Cc3ccc(F)cc3)CC2)c1 [Compound 64] | 6.49 | 6.41 | – | 7.21 | 26% | –
CCOc1n[nH]c(=O)c(Cl)c1NCc1ccc(OC)c(OCC(=O)N2CCN(Cc3ccc4ccccc4n3)CC2)c1 [Compound 67] | 6.77 | 6.40 | – | 7.39 | 29% | –
